According to patent publication US20230382923A1, “FUSED TETRACYCLIC QUINAZOLINE DERIVATIVES AS INHIBITORS OF ERBB2” (EnLiven Therapeutics, Inc., priority 2021, published 2023):

How the values were obtained:
[1] = molecular target: phosphorylated ERBB2 (pERBB2) (Homo sapiens (Human), UniProt P04626); assay: Detection of phosphorylated ERBB2 (pERBB2) by ELISA in BT-474 cells; format: cell-based; conditions: four hours incubation with compound
Experimental: BT-474 cells were seeded into a 96-well at 2.0*10^4cells/100 μl/well. Compounds were dissolved and serially diluted in DMSO. The compounds were then were added, mixed, and incubated for four hours at 37° C., 5% CO2. […] Following the four hour incubation with compounds, cell lysates were prepared. Plates were centrifuged for 5 min at 3000 RPM, and supernatant was removed from each well. Cells were washed 3 times by resuspension in 150 μl PBS, followed by centrifugation and removal of the supernatant, as above. 100 μl of cell lysis buffer (Boston BioProducts, cat #BP-115D) supplied with 1×complete ULTRA cocktail inhibitor (Thermo ScientificTM, cat #78443) was then added to the washed cells. Cells were incubated with lysis buffer for 1 hour at 4° C., and then stored at -80° C. Enzyme-linked immunosorbent assays (ELISA) were performed to measure phosphorylated ERBB2 levels. […] The next day, plates were washed with PBS+0.05% Tween20 (PBST). 150 μl of 5% BSA blocking solution was added for 1 hour at room temperature, with shaking. Plates were washed with PBST. Cell lysates were thawed and 100 μl of lysate was added to the ELISA plate. The plates were incubated for 2 hours at room temperature, with shaking. ELISA plates were then washed with PBST and 100 μl of an HRP-labeled detection antibody that binds phosphorylated tyrosine (R&D Systems, cat #841913) was added to each well. Plates were incubated for 1 hour at room temperature, with shaking. Plates were then washed with PBST, and 100 μl TMB substrate solution (R&D Systems, cat #DY999) was added. Plate were incubated in the dark for 20 minutes at room temperature. 50 μl of Stop solution (R&D Systems, cat #DY994) (50 μl) was added to each well and mixed. […] The remaining kinase activity by calculated using the following formula: % Relative activity=100×([…]). The low and high control values (“LC” and “HC”) were generated from lysate from wells without cells or with cells treated with 0.1% DMSO, respectively.

[2] = molecular target: phosphorylated EGFR (pEGFR) (Homo sapiens (Human), UniProt P00533); assay: Detection of phosphorylated EGFR (pEGFR) by AlphaLISA in A431 cells; format: cell-based; conditions: A431 cells (10% FBS), 4 hours incubation, EGF 30 ng/mL for 10 minutes
Chain of phosphorylated EGFR (pEGFR) (P00533 25-1210): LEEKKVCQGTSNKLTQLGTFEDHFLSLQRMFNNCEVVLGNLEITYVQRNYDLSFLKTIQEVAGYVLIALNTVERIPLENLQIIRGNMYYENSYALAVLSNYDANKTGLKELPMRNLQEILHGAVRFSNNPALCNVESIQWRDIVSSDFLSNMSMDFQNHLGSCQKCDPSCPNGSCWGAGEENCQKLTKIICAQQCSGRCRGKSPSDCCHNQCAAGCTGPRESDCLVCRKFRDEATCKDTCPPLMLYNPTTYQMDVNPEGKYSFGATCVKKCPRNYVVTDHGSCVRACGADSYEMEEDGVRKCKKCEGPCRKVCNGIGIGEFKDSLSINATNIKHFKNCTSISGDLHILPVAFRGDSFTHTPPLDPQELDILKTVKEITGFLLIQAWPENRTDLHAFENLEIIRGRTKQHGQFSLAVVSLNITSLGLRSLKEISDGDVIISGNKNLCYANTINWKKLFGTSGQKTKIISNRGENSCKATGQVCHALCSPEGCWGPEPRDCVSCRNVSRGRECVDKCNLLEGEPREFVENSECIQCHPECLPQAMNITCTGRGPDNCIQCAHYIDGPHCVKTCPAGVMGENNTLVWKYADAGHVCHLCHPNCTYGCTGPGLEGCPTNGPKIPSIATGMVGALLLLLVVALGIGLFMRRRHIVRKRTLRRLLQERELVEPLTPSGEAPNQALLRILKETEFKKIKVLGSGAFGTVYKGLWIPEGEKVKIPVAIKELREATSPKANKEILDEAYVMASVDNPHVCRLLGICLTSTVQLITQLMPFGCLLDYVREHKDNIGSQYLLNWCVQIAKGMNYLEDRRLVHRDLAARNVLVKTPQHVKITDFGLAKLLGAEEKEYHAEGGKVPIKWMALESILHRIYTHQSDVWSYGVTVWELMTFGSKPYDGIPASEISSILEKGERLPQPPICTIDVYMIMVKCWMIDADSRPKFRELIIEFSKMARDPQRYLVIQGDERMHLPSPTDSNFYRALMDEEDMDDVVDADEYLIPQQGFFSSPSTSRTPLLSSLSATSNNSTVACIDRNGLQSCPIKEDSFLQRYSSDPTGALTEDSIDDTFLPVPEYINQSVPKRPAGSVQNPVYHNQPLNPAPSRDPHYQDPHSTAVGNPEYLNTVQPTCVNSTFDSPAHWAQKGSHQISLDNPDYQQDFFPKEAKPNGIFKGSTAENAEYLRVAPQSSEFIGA
Experimental: […] were performed to measure phosphorylated EGFR levels using A431 cells (10% FBS). A431 (1.0*10^4cells/40 μl/well) cells were seeded in 384 well. Compounds were dissolved in DMSO, serially diluted in DMSO and then were added, mixed, and incubated for 4 hours at 37° C., […]. Following the 4-hours incubation, cells were stimulated for 10 minutes with EGF (Invitrogen, cat #PHG0311) at a final concentration of 30 ng/mL in the incubator. The media was aspirated and cells were lysed in 10 μL lysis buffer with protease and phosphatase inhibitors (PerkinElmer, cat #ALSU-PEGFR-A50K). The plates were placed on a shaker for 5 minutes and then incubated for 30 min at 4° C. for complete lysis. The lysate was transferred to an Optiplate (Perkin Elmer, cat #6007290).
Acceptor mix (PerkinElmer, cat #ALSU-PEGFR-A50K) was prepared just before use and 5 μL was dispensed to all the wells, followed by a 1.5-2 h incubation at room temperature in dark. The donor mix (PerkinElmer, cat #ALSU-PEGFR-A50K) was prepared under low light conditions prior to use and 5 μl of donor mix was added to all the wells under subdued lighting or green filters. The plates were placed on a shaker for 5 min, sealed, and incubated overnight at room temperature in dark. Plates were read on the Envision (PerkinElmer) using standard AlphaLISA settings.
The percentage of inhibition on EGFR phosphorylation was calculated following equation: % Inhibition=100×(LumHC−LumSample)/(LumHC−LumLC). The low and high controls (LC/HC) are generated from lysate from wells with cells treated with DMSO or […] Staurosporine (BioAustralis, cat #BIA-S1086), […]. IC50 values were calculated by fitting the Curve using XLfit (v5.3.1.3), equation 201: Y=Bottom+(Top−Bottom)/(1+10^((LogIC50−X)*HillSlope)).

Chain of phosphorylated ERBB2 (pERBB2) (P04626 23-1255): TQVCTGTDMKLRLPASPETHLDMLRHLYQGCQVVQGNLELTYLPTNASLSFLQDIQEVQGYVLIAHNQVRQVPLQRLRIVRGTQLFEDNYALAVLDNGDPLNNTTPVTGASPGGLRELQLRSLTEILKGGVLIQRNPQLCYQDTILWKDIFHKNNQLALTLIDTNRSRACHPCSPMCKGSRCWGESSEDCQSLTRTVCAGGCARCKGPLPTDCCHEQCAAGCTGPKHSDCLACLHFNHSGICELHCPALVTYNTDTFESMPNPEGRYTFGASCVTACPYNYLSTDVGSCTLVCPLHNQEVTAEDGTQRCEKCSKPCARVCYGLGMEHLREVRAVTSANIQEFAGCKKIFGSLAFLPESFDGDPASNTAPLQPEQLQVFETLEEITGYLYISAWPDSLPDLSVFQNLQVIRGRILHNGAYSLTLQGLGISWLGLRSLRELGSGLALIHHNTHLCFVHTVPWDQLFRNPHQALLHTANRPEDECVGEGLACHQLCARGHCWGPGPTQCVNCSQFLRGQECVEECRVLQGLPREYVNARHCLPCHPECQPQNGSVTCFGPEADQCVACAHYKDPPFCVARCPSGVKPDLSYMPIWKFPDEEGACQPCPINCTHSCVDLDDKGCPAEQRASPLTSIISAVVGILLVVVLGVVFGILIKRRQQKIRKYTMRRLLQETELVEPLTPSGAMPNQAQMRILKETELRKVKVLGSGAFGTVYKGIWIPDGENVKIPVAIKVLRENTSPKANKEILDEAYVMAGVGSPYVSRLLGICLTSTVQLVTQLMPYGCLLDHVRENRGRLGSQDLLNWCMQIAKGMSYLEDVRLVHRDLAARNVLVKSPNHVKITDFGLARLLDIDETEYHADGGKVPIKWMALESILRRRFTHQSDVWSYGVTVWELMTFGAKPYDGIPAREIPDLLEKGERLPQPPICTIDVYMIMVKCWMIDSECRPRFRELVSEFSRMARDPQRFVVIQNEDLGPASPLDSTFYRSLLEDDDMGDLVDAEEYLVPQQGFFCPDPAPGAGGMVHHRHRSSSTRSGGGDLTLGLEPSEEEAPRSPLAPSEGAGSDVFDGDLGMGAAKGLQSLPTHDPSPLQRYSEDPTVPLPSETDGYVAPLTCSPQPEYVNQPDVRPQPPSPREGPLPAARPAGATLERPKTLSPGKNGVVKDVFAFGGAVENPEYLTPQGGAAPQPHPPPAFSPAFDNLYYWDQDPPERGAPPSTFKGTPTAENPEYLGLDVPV

| SMILES | IC50 [1] [nM] | IC50 [2] [nM] |
| --- | --- | --- |
| Cc1cc(Nc2ncnc3cc4c(cc23)N2CCN(C(=O)/C=C/CN(C)C)C(CO4)C2)ccc1Oc1ccc2c(c1)ncn2C (stereo in doubt) [Compound 7, (E)-4-(dimethylamino)-1-((10S)-4-((3-methyl-4-((1-methyl-1H-benzo[d]imidazol-5-yl)oxy)phenyl)amino)-7,8,10,11-tetrahydro-9H-6,10-methano[1,4,7]oxadiazonino[3,2-g]quinazolin-9-yl)but-2-en-1-one] | 41.3 | > 10000 |
| CC#CC(=O)N1CCN2CC1COc1cc3ncnc(Nc4ccc(Oc5ccc6c(c5)ncn6C)c(C)c4)c3nc12 (stereo in doubt) [Compound 16, 1-((10S)-4-((3-methyl-4-((1-methyl-1H-benzo[d]imidazol-5-yl)oxy)phenyl)amino)-7,8,10,11-tetrahydro-9H-6,10-methanopyrimido[4′,5′:5,6]pyrido[3,2-b][1,4,7]oxadiazonin-9-yl)but-2-yn-1-one] | 242 | > 10000 |
| Cc1cc(Nc2ncnc3cc4c(nc23)N2CCN(C(=O)/C=C/[C@@H](C)N(C)C)C(CO4)C2)ccc1Oc1ccn2ncnc2c1 (stereo in doubt) [Compound 29, (4R,E)-1-((10S)-4-((4-([1,2,4]triazolo[1,5-a]pyridin-7-yloxy)-3-methylphenyl)amino)-7,8,10,11-tetrahydro-9H-6,10-methanopyrimido[4′,5′:5,6]pyrido[3,2-b][1,4,7]oxadiazonin-9-yl)-4-(dimethylamino)pent-2-en-1-one] | 16.8 | > 10000 |
| Cc1cc(Nc2ncnc3cc4c(nc23)N2CCN(C(=O)/C=C/CN(C)C)C(CO4)C2)ccc1Oc1ccn2ncnc2c1 (stereo in doubt) [Compound 15, (E)-1-((10R)-4-((4-([1,2,4]triazolo[1,5-a]pyridin-7-yloxy)-3-methylphenyl)amino)-7,8,10,11-tetrahydro-9H-6,10-methanopyrimido[4′,5′:5,6]pyrido[3,2-b][1,4,7]oxadiazonin-9-yl)-4-(dimethylamino)but-2-en-1-one] | 343 | > 10000 |
| Cc1cc(Nc2ncnc3cc4c(nc23)N2CCN(C(=O)/C=C/[C@@H](C)N(C)C)C(CO4)C2)c(F)cc1Oc1ccn2ncnc2c1 (stereo in doubt) [Compound 50, (4R,E)-1-((10S)-4-((4-([1,2,4]triazolo[1,5-a]pyridin-7-yloxy)-2-fluoro-5-methylphenyl)amino)-7,8,10,11-tetrahydro-9H-6,10-methanopyrimido[4′,5′:5,6]pyrido[3,2-b][1,4,7]oxadiazonin-9-yl)-4-(dimethylamino)pent-2-en-1-one] | 72.4 | > 10000 |
| Cc1cc(Nc2ncnc3cc4c(nc23)N2CCN(C(=O)/C=C/CN(C)C)C(CCO4)C2)ccc1Oc1ccn2ncnc2c1 (stereo not shown) [Compound 52, (E)-1-(4-((4-([1,2,4]triazolo[1,5-a]pyridin-7-yloxy)-3-methylphenyl)amino)-7,8,11,12-tetrahydro-6,10-methanopyrimido[4′,5′:5,6]pyrido[3,2-b][1,4,7]oxadiazecin-9 (10H)-yl)-4-(dimethylamino)but-2-en-1-one] | 635 | > 10000 |
| Cc1ccc(Oc2ccc(Nc3ncnc4cc5c(nc34)N3CCN(C(=O)/C=C/CN(C)C)C(CO5)C3)cc2C)cn1 (stereo in doubt) [Compound 21, (E)-4-(dimethylamino)-1-((10S)-4-((3-methyl-4-((6-methylpyridin-3-yl)oxy)phenyl)amino)-7,8,10,11-tetrahydro-9H-6,10-methanopyrimido[4′,5′:5,6]pyrido[3,2-b][1,4,7]oxadiazonin-9-yl)but-2-en-1-one] | 25 | 621 |
| Cc1cc(Nc2ncnc3cc4c(nc23)N2CCN(C(=O)/C=C/CN(C)C)C(CO4)C2)ccc1Oc1cccnc1 (stereo in doubt) [Compound 25, (E)-4-(dimethylamino)-1-((10S)-4-((3-methyl-4-(pyridin-3-yloxy)phenyl)amino)-7,8,10,11-tetrahydro-9H-6,10-methanopyrimido[4′,5′:5,6]pyrido[3,2-b][1,4,7]oxadiazonin-9-yl)but-2-en-1-one] | 5.54 | 338 |
| [2H]C([2H])([2H])N(C([2H])([2H])[2H])C([2H])([2H])/C=C/C(=O)N1CCN2CC1COc1cc3ncnc(Nc4cc(C)c(Oc5ccn6ncnc6c5)cc4F)c3nc12 (stereo in doubt) [Compound 59, (E)-1-((10S)-4-((4-([1,2,4]triazolo[1,5-a]pyridin-7-yloxy)-2-fluoro-5-methylphenyl)amino)-7,8,10,11-tetrahydro-9H-6,10-methanopyrimido[4′,5′:5,6]pyrido[3,2-b][1,4,7]oxadiazonin-9-yl)-4-(bis(methyl-d3)amino)but-2-en-1-one-4,4-d2] | 9 | 1380 |
| Cc1cc(Nc2ncnc3cc4c(nc23)N2CCN(C(=O)/C=C/CN(C)C)C(CO4)C2)ccc1Oc1ccn2ccnc2c1 (stereo in doubt) [Compound 34, (E)-4-(dimethylamino)-1-((10S)-4-((4-(imidazo[1,2-a]pyridin-7-yloxy)-3-methylphenyl)amino)-7,8,10,11-tetrahydro-9H-6,10-methanopyrimido[4′,5′:5,6]pyrido[3,2-b][1,4,7]oxadiazonin-9-yl)but-2-en-1-one] | 17.7 | 465 |
| Cc1cc(Nc2ncnc3cc4c(nc23)N2CCN(C(=O)/C=C/[C@@H]3CCCN3C)C(CO4)C2)ccc1Oc1ccn2ncnc2c1 (stereo in doubt) [Compound 28, (E)-1-((10S)-4-((4-([1,2,4]triazolo[1,5-a]pyridin-7-yloxy)-3-methylphenyl)amino)-7,8,10,11-tetrahydro-9H-6,10-methanopyrimido[4′,5′:5,6]pyrido[3,2-b][1,4,7]oxadiazonin-9-yl)-3-((S)-1-methylpyrrolidin-2-yl)prop-2-en-1-one] | 10.8 | 8770 |
| CN(C)C/C=C/C(=O)N1CCN2C[C@H]1COc1cc3ncnc(Nc4cc(F)c(Oc5ccn6ncnc6c5)cc4F)c3nc12 [Compound 48, (E)-1-((10S)-4-((4-([1,2,4]triazolo[1,5-a]pyridin-7-yloxy)-2,5-difluorophenyl)amino)-7,8,10,11-tetrahydro-9H-6,10-methanopyrimido[4′,5′:5,6]pyrido[3,2-b][1,4,7]oxadiazonin-9-yl)-4-(dimethylamino)but-2-en-1-one] | 10.8 | 3300 |
| Cc1cc(Nc2ncnc3cc4c(nc23)N2CCN(C(=O)/C=C/CN(C)C)C(CO4)C2)c(F)cc1Oc1ccn2ncnc2c1 (stereo in doubt) [Compound 24, (E)-1-((10S)-4-((4-([1,2,4]triazolo[1,5-a]pyridin-7-yloxy)-2-fluoro-5-methylphenyl)amino)-7,8,10,11-tetrahydro-9H-6,10-methanopyrimido[4′,5′:5,6]pyrido[3,2-b][1,4,7]oxadiazonin-9-yl)-4-(dimethylamino)but-2-en-1-one] | 8.38 | 2160 |
| CC#CC(=O)N1CCN2CC1COc1cc3ncnc(Nc4ccc(Oc5ccc6c(c5)ncn6C)c(C)c4)c3cc12 (stereo in doubt) [Compound 11, 1-((10S)-4-((3-methyl-4-((1-methyl-1H-benzo[d]imidazol-5-yl)oxy)phenyl)amino)-7,8,10,11-tetrahydro-9H-6,10-methano[1,4,7]oxadiazonino[3,2-g]quinazolin-9-yl)but-2-yn-1-one] | 103 | > 10000 |
